According to patent publication US20260224588A1, “BENZODIAZEPINONE-DERIVED INHIBITORS OF EGFR AND HER2” (The Research Foundation for the State University of New York, priority 2023, published 2026):
Entries after “also recorded” stand apart in the source; their conditions may differ. Like-named read-outs stand apart in the source and are kept apart here.

Assays:
EGFR L858R kinase domain = biological target: T1, EGFR L858R kinase domain (Homo sapiens, UniProt P00533, L858R); test: HTRF-based activity assay; assay type: biochemical
T1 construct: The EGFR kinase domain (residues 696-1022) was cloned into pTriEx; 6xHis (N, cleaved yes); GST (N, cleaved yes); made in house; host or cells: SF9 insect cells (baculovirus)
T1 sequence (P00533 696-1022 L858R): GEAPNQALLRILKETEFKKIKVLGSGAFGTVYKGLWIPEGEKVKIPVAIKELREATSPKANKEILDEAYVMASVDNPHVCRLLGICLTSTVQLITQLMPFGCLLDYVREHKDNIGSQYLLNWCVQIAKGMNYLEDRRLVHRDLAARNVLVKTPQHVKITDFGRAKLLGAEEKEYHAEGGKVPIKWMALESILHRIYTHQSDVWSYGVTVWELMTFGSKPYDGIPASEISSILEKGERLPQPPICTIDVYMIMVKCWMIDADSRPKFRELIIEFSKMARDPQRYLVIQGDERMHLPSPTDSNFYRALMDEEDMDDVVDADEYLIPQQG
Protocol: (§1) Protein expression and purification. The EGFR kinase domain (residues 696-1022) was cloned into pTriEx with an N-terminal 6×His-glutathione S-transferase (GST) fusion tag followed by a TEV protease cleavage site. EGFR WT, L858R, L858R/T790M, L858R/T790M/C797S was expressed after baculoviral infection in SF9 cells and EGFR(T790M/V948R) was expressed in SF21 cells. Briefly, cells were pelleted and resuspended in lysis buffer composed of 50 mM Tris pH 8.0, 500 mM NaCl, 1 mM tris(2-carboxyethyl)phosphine (TCEP), and 5% glycerol. Cells were lysed via sonication prior to ultracentrifugation at >200,000 g for 1 h. Imidazole pH 8.0 was added to the supernatant for a final concentration of 40 mM and flowed through a column containing Ni-NTA agarose beads. The resin was washed with lysis buffer supplemented with 40 mM imidazole and eluted with lysis buffer containing 200 mM imidazole. Eluted EGFR kinase domain was dialyzed overnight in the presence of 5% (w/w) TEV protease against dialysis buffer containing 50 mM Tris pH 8.0, 500 mM NaCl, 1 mM TCEP, and 5% glycerol. The cleaved protein was passed through Ni-NTA resin to remove the 6×His-GST fusion protein and TEV prior to size exclusion chromatography on a prep-grade Superdex S200 column in 50 mM Tris pH 8.0, 500 mM NaCl, 1 mM TCEP, and 5% glycerol.
(§2) HTRF Assays. Biochemical assays for EGFR domains were carried out using a homogeneous time-resolved fluorescence (HTRF) KinEASE-TK (Cisbio) assay, as described previously. Assays were optimized for ATP concentration of 100 μM with enzyme concentrations WT EGFR 10 nM, L858R 0.1 nM, L858R/T790M at 0.02 nM and L858R/T790M/C797S at 0.02 nM. Inhibitor compounds in DMSO were dispensed directly in 384-well plates with the D300 digital dispenser (Hewlett Packard) followed immediately by the addition of aqueous buffered solutions using the Multidrop Combi Reagent Dispenser (Thermo Fischer). […] The curves were fitted using a non-linear regression model with a sigmoidal dose response.

[1] = biological target: T2, EGFR L858R/T790M kinase domain (Homo sapiens, UniProt P00533, L858R/T790M); test: HTRF-based activity assay; assay type: biochemical
T2 construct: The EGFR kinase domain (residues 696-1022) was cloned into pTriEx; 6xHis (N, cleaved yes); GST (N, cleaved yes); made in house; host or cells: SF9 insect cells (baculovirus)
T2 sequence (P00533 696-1022 T790M/L858R): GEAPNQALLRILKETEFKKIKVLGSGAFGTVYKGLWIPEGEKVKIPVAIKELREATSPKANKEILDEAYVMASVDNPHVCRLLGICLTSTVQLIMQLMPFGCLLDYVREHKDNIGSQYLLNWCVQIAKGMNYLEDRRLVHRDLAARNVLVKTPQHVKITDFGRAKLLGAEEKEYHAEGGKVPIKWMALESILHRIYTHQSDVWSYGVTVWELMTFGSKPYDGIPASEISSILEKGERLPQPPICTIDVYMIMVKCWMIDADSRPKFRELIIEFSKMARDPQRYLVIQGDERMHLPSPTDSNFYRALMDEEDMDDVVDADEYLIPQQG
Protocol: as §1, §2

[2] = biological target: T3, EGFR L858R/T790M/C797S kinase domain (Homo sapiens, UniProt P00533, C797S/L858R/T790M); test: HTRF-based activity assay; assay type: biochemical
T3 construct: The EGFR kinase domain (residues 696-1022) was cloned into pTriEx; 6xHis (N, cleaved yes); GST (N, cleaved yes); made in house; host or cells: SF9 insect cells (baculovirus)
T3 sequence (P00533 696-1022 T790M/C797S/L858R): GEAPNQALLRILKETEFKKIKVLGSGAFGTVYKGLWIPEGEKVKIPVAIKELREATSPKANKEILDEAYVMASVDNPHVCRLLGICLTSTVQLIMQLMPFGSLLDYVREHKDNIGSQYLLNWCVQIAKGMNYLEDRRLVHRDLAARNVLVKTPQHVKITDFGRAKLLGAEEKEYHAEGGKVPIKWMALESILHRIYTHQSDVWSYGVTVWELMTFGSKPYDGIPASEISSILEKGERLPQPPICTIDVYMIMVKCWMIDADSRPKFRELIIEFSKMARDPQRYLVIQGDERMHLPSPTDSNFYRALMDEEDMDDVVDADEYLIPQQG
Protocol: as §1, §2

WT EGFR kinase domain = biological target: T4, WT EGFR kinase domain (Homo sapiens, UniProt P00533); test: HTRF-based activity assay; assay type: biochemical
T4 construct: The EGFR kinase domain (residues 696-1022) was cloned into pTriEx; 6xHis (N, cleaved yes); GST (N, cleaved yes); made in house; host or cells: SF9 insect cells (baculovirus)
T4 sequence (P00533 696-1022): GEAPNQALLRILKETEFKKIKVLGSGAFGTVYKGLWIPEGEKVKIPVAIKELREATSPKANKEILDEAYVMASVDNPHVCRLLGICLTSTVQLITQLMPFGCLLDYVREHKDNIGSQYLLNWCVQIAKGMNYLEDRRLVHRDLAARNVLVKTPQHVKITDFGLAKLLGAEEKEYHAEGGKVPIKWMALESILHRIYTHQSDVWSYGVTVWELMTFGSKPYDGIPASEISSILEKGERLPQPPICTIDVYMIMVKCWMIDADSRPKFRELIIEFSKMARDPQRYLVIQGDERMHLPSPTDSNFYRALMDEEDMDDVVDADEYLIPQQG
Protocol: as §1, §2

[3] = test system: EGFR (L858R/T790M) in H1975 lung cancer cells; test: Western blotting of EGFR, ERK1/2 and AKT phosphorylation; assay type: cell-based, human; conditions: 6 hours treatment
Protocol: FIG. 2. […] All experiments performed after 6 hours treatments of inhibitors or DMSO controls and Western blots are representative of at least three independent experiments.
Western blotting. Cells were collected and lysed with lysis buffer (5M NaCl, 1M TRIS pH 8.0, 10% SDS, 10% Triton X-100 and a tablet of protease inhibitors) and processed for Western blotting analysis. Primary antibodies used; phospho-EGFR (Tyr1068; #2234, 1:1,000), EGFR (#4267; 1:1,000), phospho-AKT (Ser473; #4060, 1:1,000), AKT (#9272, 1:1,000), phospho-ERK1/2 (Thr202/Tyr204; #4370, 1:1,000), and ERK1/2 (#4695, 1:1,000) antibodies; were purchased from Cell Signaling Technology. Secondary Goat anti-rabbit IgG starbright blue 700 and Anti-tubulin hFAB Rhodamine Tubulin were purchased from Bio-rad.

[4] = test system: wildtype EGFR Ba/F3 cells; conditions: from literature (footnotes a, c), read-out: Anti-proliferative EC50 ± SE, wt; cited from earlier work
[5] = test system: L858R EGFR mutant Ba/F3 cells; conditions: cited from earlier work
[6] = test system: L858R/T790M EGFR mutant Ba/F3 cells; conditions: from literature (footnotes a, c), read-out: Anti-proliferative EC50 ± SE, LR/TM; cited from earlier work
[7] = test system: wildtype HER2 Ba/F3 cells; conditions: from Heppner et al. 2022, read-out: Anti-proliferative EC50 ± SE, HER2; cited from earlier work
[8] = 100 μM ATP, enzyme 0.1 nM, read-out: Biochemical EGFR IC50, LR
[9] = 100 μM ATP, enzyme 0.02 nM, read-out: Biochemical EGFR IC50, LRTM
[10] = 100 μM ATP, enzyme 0.02 nM, read-out: Biochemical EGFR IC50, LRTMCS
[11] = from literature (footnotes a, c), read-out: Anti-proliferative EC50 ± SE, LR

Compound	IC50 (EGFR L858R kinase domain; [8]) [nM]	IC50 [1, 9] [nM]	IC50 [2, 10] [nM]	EC50 [5, 11] [nM]	further results
CCc1nc(-c2cccc(NC(=O)c3cccc4c3NC(=O)c3ccccc3N4)c2)c(-c2ccnc(NC(C)=O)c2)[nH]1 [Compound 3, N-(3-(5-(2-Acetamidopyridin-4-yl)-2-ethyl-1H-imidazol-4-yl)phenyl)-11-oxo-10,11-dihydro-5H-dibenzo[b,e][1,4]diazepine-9-carboxamide]	1.2 ± 0.09	0.051 ± 0.005	0.063 ± 0.005		
CSc1nc(-c2cccc(CN3C(=O)c4ccccc4Nc4ccc(F)cc43)c2)c(-c2ccnc(NC(C)=O)c2)[nH]1 [Compound 1, N-(4-(4-(3-((8-Fluoro-11-oxo-5,11-dihydro-10H-dibenzo[b,e][1,4]diazepin-10-yl)methyl)phenyl)-2-(methylthio)-1H-imidazol-5-yl)pyridin-2-yl) acetamide]	1300 ± 100				IC50 (EGFR L858R kinase domain; read-out: IC50 values, LR): > 1000 nM; IC50 ([1]; read-out: IC50 values, LRTM): > 1000 nM; IC50 ([2]; read-out: IC50 values, LRTMCS): > 1000 nM; IC50 (WT EGFR kinase domain; read-out: IC50 values, WT EGFR): > 1000 nM
CCc1nc(-c2cccc(NC(=O)c3cccc4c3NC(=O)c3ccccc3N4)c2)c(-c2ccnc(Nc3ccccc3)c2)[nH]1 [Compound 5, N-(3-(2-ethyl-5-(2-(phenylamino)pyridin-4-yl)-1H-imidazol-4-yl)phenyl)-11-oxo-10,11-dihydro-5H-dibenzo[b,e][1,4]diazepine-9-carboxamide]	1.1 ± 0.2	0.87 ± 0.09	1 ± 0.1		IC50 (WT EGFR kinase domain; 100 μM ATP, enzyme 10 nM, read-out: Biochemical EGFR IC50, wt): < 10 nM
CSc1nc(-c2cccc(NC(=O)c3cccc4c3NC(=O)c3ccccc3N4)c2)c(-c2ccnc(NC(C)=O)c2)[nH]1 [Compound 2, N-(3-(5-(2-Acetamidopyridin-4-yl)-2-(methylthio)-1H-imidazol-4-yl)phenyl)-11-oxo-10,11-dihydro-5H-dibenzo[b,e][1,4]diazepine-9-carboxamide]	1.5 ± 0.1	0.059 ± 0.005	0.064 ± 0.004		EGFR, ERK1/2 and AKT phosphorylation (Western blot) [3]: less effective; also recorded: suppresses EGFR phosphorylation
C=CC(=O)Nc1cc(Nc2nccc(-c3cn(C)c4ccccc34)n2)c(OC)cc1N(C)CCN(C)C [Osimertinib]				3.3 ± 0.6	EC50 [4]: 110 ± 40 nM; EC50 [6]: 8 nM; EC50 [7]: 34 ± 8 nM
O=C1c2ccccc2Nc2ccc(F)cc2N1Cc1ccccc1 [DDC4002]				> 10000	EC50 ([5]; experiments that include cetuximab, from De Clercq and Heppner et al. 2019, read-out: Anti-proliferative EC50 ± SE, LR): > 10000 nM
